Assay results: PubChem BioAssay (NCI)
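48-hour exposure; five concentrations; linearly interpolated endpoints. Abbreviation: GI50, concentration required for 50% inhibition of growth. TGI is the concentration that stops growth completely.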

Experiments:
Experiment in all cases: NCI tumour cell line growth inhibition, 48 h
NCI/ADR-RES ovarian = test system: NCI/ADR-RES ovarian
TK-10 renal = test system: TK-10 renal
OVCAR-5 ovarian = test system: OVCAR-5 ovarian
OVCAR-4 ovarian = test system: OVCAR-4 ovarian
HCC-2998 colon = test system: HCC-2998 colon
NCI-H460 lung = test system: NCI-H460 lung
A549 NSCLC = test system: A549 NSCLC
CCRF-CEM leukemia = test system: CCRF-CEM leukemia
NCI-H522 lung = test system: NCI-H522 lung
SW-620 colon = test system: SW-620 colon
MALME-3M melanoma = test system: MALME-3M melanoma
BT-549 breast = test system: BT-549 breast
SF-539 CNS = test system: SF-539 CNS
HT29 colon = test system: HT29 colon
T-47D breast = test system: T-47D breast
MCF7 breast = test system: MCF7 breast
RXF 393 renal = test system: RXF 393 renal
OVCAR-8 ovarian = test system: OVCAR-8 ovarian
HCT-116 colon = test system: HCT-116 colon
SNB-19 CNS = test system: SNB-19 CNS
SNB-75 CNS = test system: SNB-75 CNS
M14 melanoma = test system: M14 melanoma
HS 578T breast = test system: HS 578T breast
CAKI-1 renal = test system: CAKI-1 renal
786-0 renal = test system: 786-0 renal
EKVX NSCLC = test system: EKVX NSCLC
OVCAR-3 ovarian = test system: OVCAR-3 ovarian

`Cc1ccc(C2=C(c3ccc(C)cc3)C3(c4ccc(C)cc4)[C@@H](C#N)[C@H](C#N)C2(c2ccc(C)cc2)S3=O)cc1` (stereo partly drawn) gave a TGI (NCI/ADR-RES ovarian) greater than 100 µM, a GI50 (TK-10 renal) greater than 100 µM and a TGI (TK-10 renal) greater than 100 µM. For the same compound, the GI50 (OVCAR-5 ovarian) was greater than 100 µM, the TGI (OVCAR-5 ovarian) was greater than 100 µM and the GI50 (OVCAR-4 ovarian) was greater than 100 µM. The TGI (OVCAR-4 ovarian) was greater than 100 µM, the GI50 (HCC-2998 colon) was greater than 100 µM and the TGI (HCC-2998 colon) was greater than 100 µM. The GI50 (NCI-H460 lung) was greater than 100 µM, the TGI (NCI-H460 lung) was greater than 100 µM and the GI50 (A549 NSCLC) was greater than 100 µM. It also gave a TGI (A549 NSCLC) greater than 100 µM, a GI50 (CCRF-CEM leukemia) greater than 100 µM and a TGI (CCRF-CEM leukemia) greater than 100 µM. For the same compound, the GI50 (NCI-H522 lung) was greater than 100 µM, the TGI (NCI-H522 lung) was greater than 100 µM and the GI50 (SW-620 colon) was greater than 100 µM. The TGI (SW-620 colon) was greater than 100 µM, the GI50 (MALME-3M melanoma) was greater than 100 µM and the TGI (MALME-3M melanoma) was greater than 100 µM. For the same compound, the GI50 (BT-549 breast) was greater than 100 µM, the TGI (BT-549 breast) was greater than 100 µM and the GI50 (SF-539 CNS) was greater than 100 µM. For the same compound, the TGI (SF-539 CNS) was greater than 100 µM, the GI50 (HT29 colon) was greater than 100 µM and the TGI (HT29 colon) was greater than 100 µM. The GI50 (T-47D breast) was greater than 100 µM, the TGI (T-47D breast) was greater than 100 µM and the GI50 (MCF7 breast) was greater than 100 µM. The TGI (MCF7 breast) was greater than 100 µM, the GI50 (RXF 393 renal) was greater than 100 µM and the TGI (RXF 393 renal) was greater than 100 µM. For the same compound, the GI50 (OVCAR-8 ovarian) was greater than 100 µM, the TGI (OVCAR-8 ovarian) was greater than 100 µM and the GI50 (HCT-116 colon) was 48.5 µM. The TGI (HCT-116 colon) was greater than 100 µM, the GI50 (SNB-19 CNS) was greater than 100 µM and the TGI (SNB-19 CNS) was greater than 100 µM. It also gave a GI50 (SNB-75 CNS) greater than 100 µM, a TGI (SNB-75 CNS) greater than 100 µM and a GI50 (M14 melanoma) of 30.1 µM. It also gave a TGI (M14 melanoma) greater than 100 µM, a GI50 (HS 578T breast) greater than 100 µM and a TGI (HS 578T breast) greater than 100 µM. For the same compound, the GI50 (CAKI-1 renal) was greater than 100 µM, the TGI (CAKI-1 renal) was greater than 100 µM and the GI50 (786-0 renal) was greater than 100 µM. The TGI (786-0 renal) was greater than 100 µM, the GI50 (EKVX NSCLC) was greater than 100 µM and the TGI (EKVX NSCLC) was greater than 100 µM. It also gave a GI50 (OVCAR-3 ovarian) greater than 100 µM and a TGI (OVCAR-3 ovarian) greater than 100 µM.
